Data from paper PMC6979384, “Characterization of the plant homeodomain (PHD) reader family for their histone tail interactions” (Epigenetics & Chromatin, 2020).

Assays:
Assay in all cases: Histone peptide microarray
Format in all cases: binding, human
Details in all cases: histone peptide array, arrays performed twice, n of 4
[1] = test system: AIRE (PP)
Summary of the method: (§1)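 Purified PHD finger domains fused to GST are screened against 293 synthetic histone peptides bearing one or several post-translational modifications. The protein is used at 0.5 μM, and the signal from four replicate arrays is averaged, with standard deviation given.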

[2] = test system: BAZ2B
Summary of the method: as §1

[3] = test system: BPTF (PB)
Summary of the method: as §1

[4] = test system: CHD4 (PPCC)
Summary of the method: as §1

[5] = test system: CHD5 (PCC)
Summary of the method: as §1

[6] = test system: CHD5 (PPCC)
Summary of the method: as §1

[7] = test system: DIDO1
Summary of the method: as §1

[8] = test system: DPF2 (PPC2W2)
Summary of the method: as §1

[9] = test system: ING1
Summary of the method: as §1

[10] = test system: ING2
Summary of the method: as §1

[11] = test system: ING3
Summary of the method: as §1

[12] = test system: ING4
Summary of the method: as §1

[13] = test system: ING5
Summary of the method: as §1

[14] = test system: KDM4C (TTP)
Summary of the method: as §1

[15] = test system: KDM5A (1)
Summary of the method: as §1

[16] = test system: KDM5A (3)
Summary of the method: as §1

[17] = test system: KDM5B (1)
Summary of the method: as §1

[18] = test system: KDM5B (3)
Summary of the method: as §1

[19] = test system: KDM7A
Summary of the method: as §1

[20] = test system: MLL5
Summary of the method: as §1

[21] = test system: MORC3 (CW)
Summary of the method: as §1

[22] = test system: PHF13
Summary of the method: as §1

[23] = test system: PHF21A
Summary of the method: as §1

[24] = test system: PHF23
Summary of the method: as §1

[25] = test system: PHF2
Summary of the method: as §1

[26] = test system: PHF8
Summary of the method: as §1

[27] = test system: PHRF1 (RP)
Summary of the method: as §1

[28] = test system: RAG2
Summary of the method: as §1

[29] = test system: SP140L
Summary of the method: as §1

[30] = test system: TAF3
Summary of the method: as §1

[31] = test system: TRIM66 (PB)
Summary of the method: as §1

[32] = GST-tagged reader, PB = PHD + Bromodomain
[33] = GST-tagged reader, PPCC = Dual PHD + Dual Chromodomain

## H4 (1-23): H4 1-23
[1]; GST-tagged AIRE (PP)
  Array Heatmap signal, AIRE (PP): 0.4854
[2]; GST-tagged BAZ2B
  Array Heatmap signal, BAZ2B: 0.467
[3]; GST-tagged BPTF (PB = PHD + Bromodomain)
  Array Heatmap signal, BPTF (PB): 0.3416
[4]; GST-tagged CHD4 (PPCC = Dual PHD + Dual Chromodomain)
  Array Heatmap signal, CHD4 (PPCC): 0.5522
[5]; GST-tagged CHD5 (PCC = PHD + Dual Chromodomain)
  Array Heatmap signal, CHD5 (PCC): 0.772
[6]; GST-tagged CHD5 (PPCC = Dual PHD + Dual Chromodomain)
  Array Heatmap signal, CHD5 (PPCC): 0.5714
[7]; GST-tagged DIDO1
  Array Heatmap signal, DIDO1: 0.6189
[8]; GST-tagged DPF2 (PPC2W2 = Dual PHD + C2W2-type Zn-finger)
  Array Heatmap signal, DPF2 (PPC2W2): 0.7352
[9]; GST-tagged ING1
  Array Heatmap signal, ING1: 0.4959
[10]; GST-tagged ING2
  Array Heatmap signal, ING2: 0.5875
[11]; GST-tagged ING3
  Array Heatmap signal, ING3: 0.4725
[12]; GST-tagged ING4
  Array Heatmap signal, ING4: 0.4424
[13]; GST-tagged ING5
  Array Heatmap signal, ING5: 0.3618
[14]; GST-tagged KDM4C (TTP = Tandem Tudor domain + PHD)
  Array Heatmap signal, KDM4C (TTP): 0.5139
[15]; GST-tagged KDM5A (1)
  Array Heatmap signal, KDM5A (1): 0.4868
[16]; GST-tagged KDM5A (3)
  Array Heatmap signal, KDM5A (3): 0.4566
[17]; GST-tagged KDM5B (1)
  Array Heatmap signal, KDM5B (1): 0.7073
[18]; GST-tagged KDM5B (3)
  Array Heatmap signal, KDM5B (3): 0.4835
[19]; GST-tagged KDM7A
  Array Heatmap signal, KDM7A: 0.4019
[20]; GST-tagged MLL5
  Array Heatmap signal, MLL5: 0.5337
[21]; GST-tagged MORC3 (CW = CW-type Zn-finger)
  Array Heatmap signal, MORC3 (CW): 0.3892
[22]; GST-tagged PHF13
  Array Heatmap signal, PHF13: 0.625
[23]; GST-tagged PHF21A
  Array Heatmap signal, PHF21A: 0.4603
[24]; GST-tagged PHF23
  Array Heatmap signal, PHF23: 0.53
[25]; GST-tagged PHF2
  Array Heatmap signal, PHF2: 0.4784
[26]; GST-tagged PHF8
  Array Heatmap signal, PHF8: 0.3699
[27]; GST-tagged PHRF1 (RP)
  Array Heatmap signal, PHRF1 (RP): 0.532
[28]; GST-tagged RAG2
  Array Heatmap signal, RAG2: 0.2838
[29]; GST-tagged SP140L
  Array Heatmap signal, SP140L: 0.3814
[30]; GST-tagged TAF3
  Array Heatmap signal, TAF3: 0.3843
[31]; GST-tagged TRIM66 (PB = PHD + Bromodomain)
  Array Heatmap signal, TRIM66 (PB): 0.7288

## H4 (1-24): H4 1-24
[1]; GST-tagged reader
  Array Heatmap signal, AIRE (PP): 0.4377
[2]; GST-tagged reader
  Array Heatmap signal, BAZ2B: 0.4426
[3]; [32]
  Array Heatmap signal, BPTF (PB): 0.3511
[4]; [33]
  Array Heatmap signal, CHD4 (PPCC): 0.5779
[5]; GST-tagged reader, PCC = PHD + Dual Chromodomain
  Array Heatmap signal, CHD5 (PCC): 0.7379
[6]; [33]
  Array Heatmap signal, CHD5 (PPCC): 0.5427
[7]; GST-tagged reader
  Array Heatmap signal, DIDO1: 0.6429
[8]; GST-tagged reader, PPC2W2 = Dual PHD + C2W2-type Zn-finger
  Array Heatmap signal, DPF2 (PPC2W2): 0.6876
[9]; GST-tagged reader
  Array Heatmap signal, ING1: 0.5158
[10]; GST-tagged reader
  Array Heatmap signal, ING2: 0.5969
[11]; GST-tagged reader
  Array Heatmap signal, ING3: 0.4908
[12]; GST-tagged reader
  Array Heatmap signal, ING4: 0.4561
[13]; GST-tagged reader
  Array Heatmap signal, ING5: 0.3526
[14]; GST-tagged reader, TTP = Tandem Tudor domain + PHD
  Array Heatmap signal, KDM4C (TTP): 0.4748
[15]; GST-tagged reader
  Array Heatmap signal, KDM5A (1): 0.4479
[16]; GST-tagged reader
  Array Heatmap signal, KDM5A (3): 0.4381
[17]; GST-tagged reader
  Array Heatmap signal, KDM5B (1): 0.6708
[18]; GST-tagged reader
  Array Heatmap signal, KDM5B (3): 0.458
[19]; GST-tagged reader
  Array Heatmap signal, KDM7A: 0.3276
[20]; GST-tagged reader
  Array Heatmap signal, MLL5: 0.528
[21]; GST-tagged reader, CW = CW-type Zn-finger
  Array Heatmap signal, MORC3 (CW): 0.3968
[22]; GST-tagged reader
  Array Heatmap signal, PHF13: 0.6132
[23]; GST-tagged reader
  Array Heatmap signal, PHF21A: 0.4744
[24]; GST-tagged reader
  Array Heatmap signal, PHF23: 0.5274
[25]; GST-tagged reader
  Array Heatmap signal, PHF2: 0.4794
[26]; GST-tagged reader
  Array Heatmap signal, PHF8: 0.3446
[27]; GST-tagged reader
  Array Heatmap signal, PHRF1 (RP): 0.5307
[28]; GST-tagged reader
  Array Heatmap signal, RAG2: 0.2506
[29]; GST-tagged reader
  Array Heatmap signal, SP140L: 0.3819
[30]; GST-tagged reader
  Array Heatmap signal, TAF3: 0.2583
[31]; [32]
  Array Heatmap signal, TRIM66 (PB): 0.5969
